Values quoted from earlier work, collected in patent US20140018379A1, “PYRIMIDINE DERIVATIVES” (CONCERT PHARMACEUTICALS INC., priority 2010, published 2014).

Conditions: 12th CROI 2005, Abst 160

In the case of `Cc1cc(/C=C/C#N)cc(C)c1Nc1ccnc(Nc2ccc(C#N)cc2)n1.Cl` [rilpivirine, 4-[4-[4-[(E)-2-cyanovinyl]-2,6-dimethylphenylamino]pyrimidin-2-ylamino]benzonitrile hydrochloride], the “safety and tolerability in clinical trials” value is listed as “safe and well-tolerated” and the “most commonly reported adverse event” value (clinical trials) is listed as “Headache”.
